From patent US10344026B2, “Compositions and methods of targeting mutant K-ras” (NANTBIO, INC., priority 2017, dated 2019) come the findings set out here.

What all share (type): cell-based
In experiment [1] the test system is phospho-ERK in Panc10.05 (G12D). Kind of experiment: In-Cell Western phospho-ERK, Panc10.05. Conditions: Homo sapiens, Panc1005, 1 h; Panc10.05, one hour treatment; read-out: In-Cell Western Panc10.05 (G12D) Erk (P). The gist of the method: (§1)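 Cells were seeded at 3000 cells/well, incubated 18 hr at 37° C, then treated with compound for 1 hr (0.5% DMSO final). After fixation, permeabilization and blocking, phospho-Akt or phospho-ERK antibodies were applied overnight at 4° C, followed by secondary antibody; cellular fluorescence was imaged and EC50 calculated.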

Experiment [2] concerns Ishikawa (K-Ras wild type cell line). Kind of experiment: Viability assay (CellTiterBlue, 72 hr) Ishikawa. Conditions: Homo sapiens, GI50, CellTiterBlue, Ishikawa K-Ras wild-type. The method, boiled down:
(§2)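 GI50 calculation uses a window set by DMSO-treated wells (100% viability) and 100 uM tamoxifen (0%). Cells (1000/well) sit 18 hr at 37 °C, receive compound for 72 hr in 0.5% DMSO, then get CellTiterBlue for 3 hr before reading at Ex550/Em590.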
A general note: Alamar Blue is a resazurin reagent that responds to reducing activity.

Experiment [3] has as its system phospho-ERK in A375 (Wild-type). The experiment is described as follows: In-Cell Western phospho-ERK, A375. The following applies: Homo sapiens, A-375, 1 h; A375, one hour treatment; read-out: In-Cell Western A375 (Wild-type) Erk (P). The gist of the method: as §1
For experiment [4], the system named is phospho-ERK in HCC827 (Wild-type). The experiment is described as follows: In-Cell Western phospho-ERK, HCC827. The following applies: Homo sapiens, 1 h; HCC827, one hour treatment; read-out: In-Cell Western HCC827 (Wild-type) Erk (P). The method, boiled down:
as §1

Experiment [5] relates to phospho-Akt in Panc1 (G12D). Kind of experiment: In-Cell Western phospho-Akt, Panc1. The following applies: Homo sapiens, PANC-1, 1 h; Panc1, one hour treatment; read-out: In-Cell Western Panc1 (G12D) Akt (P). The gist of the method: as §1
The subject of experiment [6] is Panc1-G12D. The experiment is described as follows: Viability assay (CellTiterBlue, 72 hr) Panc1. Conditions: Homo sapiens, PANC-1, GI50, CellTiterBlue, Panc1 K-Ras G12D, read-out: 72 hr Cell Viability Panc1 (G12D). The gist of the method:
as §2

Experiment [7] relates to phospho-ERK in Panc1 (G12D). Kind of experiment: In-Cell Western phospho-ERK, Panc1. Conditions: Homo sapiens, PANC-1, 1 h; Panc1, one hour treatment; read-out: In-Cell Western Panc1 (G12D) Erk (P). The gist of the method:
as §1

The subject of experiment [8] is phospho-Akt in A375 (Wild-type). Kind of experiment: In-Cell Western phospho-Akt, A375. Conditions: Homo sapiens, A-375, 1 h; A375, one hour treatment; read-out: In-Cell Western A375 (Wild-type) Akt (P). The method, boiled down:
as §1

The test system of experiment [9] is Panc10.05-G12D. The experiment is described as follows: Viability assay (CellTiterBlue, 72 hr) Panc10.05. The following applies: Homo sapiens, Panc1005, GI50, CellTiterBlue, Panc10.05 K-Ras G12D, read-out: 72 hr Cell Viability Panc10.05 (G12D). The gist of the method:
as §2

Experiment [10] relates to HCC827 (K-Ras wild type cell line). Kind of experiment: Viability assay (CellTiterBlue, 72 hr) HCC827. The following applies: Homo sapiens, GI50, CellTiterBlue, HCC827 K-Ras wild-type. The method, boiled down: as §2
Experiment [11] deals with T1, K-Ras G12D (Homo sapiens, UniProt P01116, G12D).
T1 construct: expressed in transfected cells; host or cells: 293H cells
T1 sequence (P01116 whole entry G12D): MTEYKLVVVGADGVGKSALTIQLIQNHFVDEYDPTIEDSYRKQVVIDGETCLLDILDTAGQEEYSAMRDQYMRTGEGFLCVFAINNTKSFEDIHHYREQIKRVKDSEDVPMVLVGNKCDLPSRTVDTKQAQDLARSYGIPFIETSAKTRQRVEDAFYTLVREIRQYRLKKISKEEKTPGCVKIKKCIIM
Kind of experiment: G-LISA Ras activation, 293H cells transfected with G12D mutant. Conditions: compound 1 hour. The method, boiled down: (§3)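 Mutant or wild-type Ras was expressed transiently in 293H cells, which were incubated 1 hour with compound across 3.125-25 μM. G-LISA on cold lysates gave Ras activation, wild-type cells having first been EGF-stimulated (100 ng/ml, 2 min).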

The subject of experiment [12] is phospho-Akt in Panc10.05 (G12D). The experiment is described as follows: In-Cell Western phospho-Akt, Panc10.05. The following applies: Homo sapiens, Panc1005, 1 h; Panc10.05, one hour treatment; read-out: In-Cell Western Panc10.05 (G12D) Akt (P). The method, boiled down: as §1
The subject of experiment [13] is A375 (K-Ras wild type cell line). The experiment is described as follows: Viability assay (CellTiterBlue, 72 hr) A375. Conditions: Homo sapiens, A-375, GI50, CellTiterBlue. The gist of the method:
as §2

Experiment [14] deals with U87-MG (K-Ras wild type cell line). The experiment is described as follows: Viability assay (CellTiterBlue, 72 hr) U87-MG. The following applies: Homo sapiens, U-87 MG, GI50, CellTiterBlue, U87-MG K-Ras wild-type. The gist of the method: as §2
For experiment [15], the target named is T2, wild type K-Ras (Homo sapiens, UniProt P01116).
T2 construct: expressed in transfected cells; host or cells: 293H cells
T2 sequence (P01116 whole entry): as the sequence (P01116 whole entry G12D) above, with D12G counted along it
The experiment is described as follows: G-LISA Ras activation, 293H cells transfected with Ras wild-type, EGF stimulated. The following applies: compound 1 hour, then 100 ng/ml EGF 2 minutes. The gist of the method:
as §3

Experiment [16] relates to HCT116-G31D. The experiment is described as follows: Viability assay (CellTiterBlue, 72 hr) HCT116. The following applies: Homo sapiens, HCT-116, GI50, CellTiterBlue, HCT116 K-Ras G13D, read-out: 72 hr Cell Viability HCT116 (G13D). The gist of the method:
as §2

With `Cc1nc(C)c(C(=O)Nc2nc(-c3ccc4c(c3)CCC(=O)N4C3CCCC3)cs2)o1` [Compound 69, N-(4-(1-cyclopentyl-2-oxo-1,2,3,4-tetrahydroquinolin-6-yl)thiazol-2-yl)-2,4-dimethyloxazole-5-carboxamide], the EC50 was found to be 2 µM in [1]; 3 µM in [3]; 5 µM in [4]; 6 µM in experiment [5]; 8 µM in experiment [7]; 2 µM in experiment [8]. In addition, the EC50 in experiment [12] was 17 µM. Also, the IC50 in [2] was > 25 µM; in [6], 7 µM; in experiment [9] it was 3 µM; in experiment [10], 2 µM; in experiment [11], 8.1 µM; in experiment [13] it was > 25 µM. The IC50 was > 25 µM in [14], 18.6 µM in experiment [15] and 2 µM in experiment [16].
As to `COCCCN1C(=O)CCc2cc(-c3csc(NC(=O)c4oc(C)nc4C)n3)ccc21` [Compound 96, N-(4-(1-(3-methoxypropyl)-2-oxo-1,2,3,4-tetrahydroquinolin-6-yl)thiazol-2-yl)-2,4-dimethyloxazole-5-carboxamide], the EC50 is 1.1 µM in experiment [1]; 6 µM in [3]; 7 µM in experiment [4]; 4 µM in experiment [5]; 7 µM in experiment [7]; 6 µM in [8]. The EC50 in experiment [12] was 9 µM. The IC50 in experiment [2] was > 25 µM; in experiment [6], 4 µM; in experiment [9] it was 3 µM; in [10], 4 µM; in [11], 5 µM; in experiment [13], > 25 µM. The results for the IC50 in [14], in experiment [15] and in experiment [16] were > 25 µM, 12.1 µM and 3 µM, respectively.
`COC(=O)CCCN1C(=O)CCc2cc(-c3csc(NC(=O)c4oc(C)nc4C)n3)ccc21` [Compound 100, methyl 4-(6-(2-(2,4-dimethyloxazole-5-carboxamido)thiazol-4-yl)-2-oxo-3,4-dihydroquinolin-1 (2H)-yl)butanoate]: the EC50 worked out at 3 µM in experiment [1]; 4 µM in [3]; 3 µM in experiment [4]; 25 µM in experiment [5]; 17 µM in [7]; 5 µM in experiment [8]. In addition, in experiment [12], the EC50 worked out at 7 µM. In addition, the IC50 was 3 µM in experiment [2]; 5 µM in [6]; 5 µM in experiment [9]; > 25 µM in experiment [10]; 5.5 µM in experiment [11]; 4 µM in [13]. Also, the IC50 in experiment [14] is > 25 µM; in [15], 9.5 µM; in experiment [16] it was > 25 µM.
For the compound `COc1cccc(CN2C(=O)CCc3cc(-c4csc(NC(=O)c5oc(C)nc5C)n4)ccc32)c1OC` [Compound 93, N-(4-(1-(2,3-dimethoxybenzyl)-2-oxo-1,2,3,4-tetrahydroquinolin-6-yl)thiazol-2-yl)-2,4-dimethyloxazole-5-carboxamide], the EC50 in experiment [1] was 1.2 µM; in experiment [3], > 25 µM; in experiment [4], > 25 µM; in experiment [5], 6 µM; in experiment [7], 8 µM; in experiment [8], > 25 µM. Besides, the EC50 in experiment [12] was 15 µM. The IC50 in [2] was > 25 µM; in experiment [6], 9 µM; in experiment [9], 5 µM; in experiment [10] it was > 25 µM; in experiment [11], 8.6 µM; in [13], > 25 µM. Further, the values for the IC50 in experiment [14], in experiment [15] and in [16] were > 25 µM, 10 µM and 4 µM, respectively.
For the compound `CCn1nc(C)c(C(=O)Nc2nc(-c3ccc4c(c3)CCC(=O)N4Cc3cccnc3)cs2)c1C` [Compound 114, 1-ethyl-3,5-dimethyl-N-(4-(2-oxo-1-(pyridin-3-ylmethyl)-1,2,3,4-tetrahydroquinolin-6-yl)thiazol-2-yl)-1H-pyrazole-4-carboxamide], the EC50 in experiment [1] is 1.9 µM; in experiment [3], 5 µM; in experiment [4], 4 µM; in experiment [5] it was 17 µM; in [7], 1.1 µM; in [8], > 25 µM. Also, the EC50 in [12] was 17 µM. Also, the IC50 is > 25 µM in [2]; 22 µM in experiment [6]; 1.1 µM in [9]; > 25 µM in [10]; 3 µM in experiment [11]; 6 µM in experiment [13]. In addition, the values for the IC50 in experiment [14], in experiment [15] and in [16] were > 25 µM, 6 µM and 5 µM, respectively.
Consider `Cc1nc(C(C)C)sc1C(=O)Nc1nc(-c2ccc3c(c2)CCC(=O)N3Cc2cccnc2)cs1` [Compound 107, 2-isopropyl-4-methyl-N-(4-(2-oxo-1-(pyridin-3-ylmethyl)-1,2,3,4-tetrahydroquinolin-6-yl)thiazol-2-yl)thiazole-5-carboxamide], for which the EC50 in experiment [1] was 10 µM; in experiment [3], 16 µM; in experiment [4], 6 µM; in experiment [5], > 25 µM; in [7], 6 µM; in experiment [8] it was > 25 µM. In addition, the EC50 in experiment [12] is > 25 µM. Further, the IC50 in experiment [2] was > 25 µM; in experiment [6], > 25 µM; in experiment [9] it was 2 µM; in experiment [10] it was > 25 µM; in experiment [11], 6.6 µM; in experiment [13], 19 µM. Besides, the IC50 is > 25 µM in experiment [14], 9.7 µM in experiment [15] and 6 µM in experiment [16].
Consider `COCCN1C(=O)CCc2cc(-c3csc(NC(=O)c4oc(C)nc4C)n3)ccc21` [Compound 95, N-(4-(1-(2-methoxyethyl)-2-oxo-1,2,3,4-tetrahydroquinolin-6-yl)thiazol-2-yl)-2,4-dimethyloxazole-5-carboxamide], for which the EC50 in experiment [1] is 2 µM; in experiment [3], > 25 µM; in experiment [4] it was 10 µM; in experiment [5], 6 µM; in experiment [7], 10 µM; in experiment [8], > 25 µM. Also, the EC50 in [12] was determined as 14 µM. The IC50 in experiment [2] is > 25 µM; in experiment [6] it was 7 µM; in experiment [9] it was 4 µM; in experiment [10], 5 µM; in [11] it was 5.1 µM; in experiment [13] it was > 25 µM. The values for the IC50 in experiment [14], in [15] and in [16] were > 25 µM, 15.4 µM and 4 µM, respectively.
Consider `Cc1nn(C)c(C)c1C(=O)Nc1nc(-c2ccc3c(c2)CCC(=O)N3Cc2cccnc2)cs1` [Compound 113, 1,3,5-trimethyl-N-(4-(2-oxo-1-(pyridin-3-ylmethyl)-1,2,3,4-tetrahydroquinolin-6-yl)thiazol-2-yl)-1H-pyrazole-4-carboxamide], for which the EC50 in experiment [1] was 7 µM; in [3], 13 µM; in [4] it was 6 µM; in [5], > 25 µM; in experiment [7], 2 µM; in [8], > 25 µM. For the same compound, the EC50 in experiment [12] was > 25 µM. The IC50 in experiment [2] was > 25 µM; in experiment [6], 19 µM; in experiment [9], 2 µM; in experiment [10], > 25 µM; in experiment [11], 6.3 µM; in [13] it was 14 µM. Also, the IC50 in experiment [14] was > 25 µM; in experiment [15], 9.6 µM; in experiment [16] it was 11 µM.
